Assay results published in patent US10159265B2, “Feed composition for reducing ruminant methanogenesis” (priority 2012, dated 2018).
Marks after values point to notes of the source that are not given here.

Key:
[1] = test system: "in vitro" rumen fluid culture; test: Biogas production in "in vitro" rumen fluid culture (pressure meter); format: cell-based, calves; parameters: Average biogas production / Cumulative biogas production / Biogas production: unit not given here; settings: Exp 1; for Average biogas production: average over doses and incubation times
Method: (§1) Two trials following an identical experimental protocol were designed to study the effect of different pure flavonoids on rumen fermentation using a simulatory “in vitro” system based on the experimental protocol described by Theodorou M K et al. (1994) Animal Feed Science and Technology, 48 (3), p. 185-197; Mauricio, R. M., et al. (1999) Animal Feed Science and Technology 79, 321-330.
Gas production was determined from a semi-automatic pressure meter, the relationship between pressure levels and the produced gas volume was previously calculated.
(§2) Rumen cannulated calves which received a mixed ration mainly composed of concentrate (90:10) were used as rumen fluid donor; feed composition is presented in Table 1. The inoculum was collected and filtered through two-layer surgical gauze and kept in thermo pots. Flavonoids (Table 2) plus 600 mg of concentrate (Table 1) and 60 mg of barley straw as the substrate were dosed by triplicate in preheated bottles (39° C.) and maintained under anaerobic conditions. Flavonoids isonaringin, neoeritrocin, poncirin were purchased from INDOFINE Chemical Company, Inc (USA). 10 ml of rumen fluid and 40 ml of incubation medium were added to the bottles (McDougall, El (1948) Studies on ruminant saliva. 1. The composition and output of sheep's saliva. Biochem J. 43(1) 99-109). Once the bottles were filled and the anaerobic condition was applied, the bottles were sealed and the incubation process was started in a hot water bath. […] Each sample was incubated in triplicate in two sets or batches.

[2] = test system: methanogenic (archea) populations; test: Methane production in "in vitro" rumen fluid culture; format: cell-based, calves; parameters: Average methane production / Accumulated methane production / Methane production / Cumulative methane production: unit not given here; settings: Exp 1
From the text: as §1, §2
The effects of flavonoids substances on fermentation activity of certain archea populations which are theoretically responsible for the methane production were analyzed.
The experimental design allows determining whether the effect of flavonoids on methane reduction was derived from a general reduction in microbial activity and biogas production or contrarily flavonoid affects specifically on methanogenic (archea) populations. The presence of flavonoids in the culture medium reduced methane contribution in the total biogas production (P<0.05) although, again, the aforementioned impact was heterogeneous.

[3] = test system: "in vitro" ruminal fluid cultures; test: Volatile fatty acid concentration and molar proportions in "in vitro" ruminal fluid cultures; format: cell-based, calves
From the text: as §1
(§3) Rumen cannulated calves which received a mixed ration mainly composed of concentrate (90:10) were used as rumen fluid donor; feed composition is presented in Table 1. The inoculum was collected and filtered through two-layer surgical gauze and kept in thermo pots. Flavonoids (Table 2) plus 600 mg of concentrate (Table 1) and 60 mg of barley straw as the substrate were dosed by triplicate in preheated bottles (39° C.) and maintained under anaerobic conditions. Flavonoids isonaringin, neoeritrocin, poncirin were purchased from INDOFINE Chemical Company, Inc (USA). 10 ml of rumen fluid and 40 ml of incubation medium were added to the bottles (McDougall, El (1948) Studies on ruminant saliva. 1. The composition and output of sheep's saliva. Biochem J. 43(1) 99-109). Once the bottles were filled and the anaerobic condition was applied, the bottles were sealed and the incubation process was started in a hot water bath. Pressure readings were made at 2, 4, 6, 8, 12, 24, 36 and 48 hours. Each sample was incubated in triplicate in two sets or batches.
[…] P., 1982 Science des Aliments 2, 131-144), lactate (Taylor, K. A. C. C., 1996. Appl. Biochem. Biotechnol. Enzym. Eng. Biotechnol. 56, 49-58) and ammonia (Chaney, A. L., Marbach, E. P., 1962. Clin. Chem. 8, 130-132) analyses.

[4] = test system: "in vitro" ruminal fluid cultures; test: Ammonia (N-NH3) concentration in "in vitro" ruminal fluid cultures; format: cell-based, calves
From the text: as §1, §3
(§4) After 12 hours of incubation, one bottle (replicate) from each treatment was opened, pH was recorded and the bottle was sampled for volatile fatty acids (Jouany, J. P., 1982 Science des Aliments 2, 131-144), lactate (Taylor, K. A. C. C., 1996. Appl. Biochem. Biotechnol. Enzym. Eng. Biotechnol. 56, 49-58) and ammonia (Chaney, A. L., Marbach, E. P., 1962. Clin. Chem. 8, 130-132) analyses.

[5] = test system: "in vitro" ruminal fluid culture; test: Lactate concentration in "in vitro" ruminal fluid culture; format: cell-based, calves; settings: 12 hours of incubation
From the text: as §1, §3, §4

ruminal bacteria = test: Bacterial DNA concentration by qPCR; format: cell-based, calves; settings: 12 hours of incubation
Method: as §3, §4
(§5) The environmental DNA was extracted using the technique proposed by Yu and Morrison (2004). Quantification of Streptococcus bovis, Megasphaera elsdenii and Selenomonas ruminantium DNA was done by qPCR using specific primers (Tajima, K. et al. 2001. Appl. Environ. Microb. 67, 2766-2774; Ouwerkerk, D., et al. 2002. J. Appl. Microbiol. 92, 753-758). Results were statistically analyzed using the PROC MIXED procedure of SAS statistical package (SAS, 2000, User's guide: Statistics, version 8 editions inst., Inc., Cary, N.C.). The least significant difference was used to compare the means. Differences between means in which P<0.05 were accepted as significant.

Streptococcus bovis = test: qPCR relative quantification of Streptococcus bovis; format: cell-based; settings: 12 hours of incubation
Method: as §3, §4, §5

Selenomonas ruminantium = test: qPCR relative quantification of Selenomonas ruminantium; format: cell-based; settings: 12 hours of incubation
Method: as §3, §4, §5

Megasphaera elsdenii = test: qPCR relative quantification of Megasphaera elsdenii; format: cell-based; settings: 12 hours of incubation
Method: as §3, §4, §5

[6] = test system: "in vitro" ruminal fluid cultures; test: Ammonia (N-NH3) concentration in "in vitro" ruminal fluid cultures; format: cell-based, calves; settings: 72 h
[7] = average over doses and incubation times

## COc1ccc([C@@H]2CC(=O)c3c(O)cc(O[C@@H]4O[C@H](CO)[C@@H](O)[C@H](O)[C@H]4O[C@@H]4O[C@@H](C)[C@H](O)[C@@H](O)[C@H]4O)cc3O2)cc1 [Poncirin, poncirin]
[1]; 12 h incubation
  Cumulative biogas production: 180.63
[1]; 24 h incubation
  Cumulative biogas production: 224.90
[1]; 48 h incubation
  Cumulative biogas production: 262.00
[1]; 72 h incubation
  Cumulative biogas production: 284.28
[1]
  Average biogas production: 237.95^cde
[1]; listed as poncirin
  Average biogas production: 238
[1]; dose 1, 0.2 g/kg DM
  Biogas production: 234.43
[1]; dose 2, 0.5 g/kg DM
  Biogas production: 241.48
[2]; 12 h
  Accumulated methane production: 19.19
  Proportion of methane in the produced biogas: 10.62
[2]; 24 h
  Accumulated methane production: 24.43
  Proportion of methane in the produced biogas: 11.94
[2]; 48 h
  Accumulated methane production: 30.50
  Proportion of methane in the produced biogas: 16.54
[2]; 72 h
  Accumulated methane production: 34.07
  Proportion of methane in the produced biogas: 16.34
[2]; [7]
  Average methane production: 27.04^de
  Proportion of methane in the produced biogas: 13.86^cd
[2]; average over doses and incubation times, listed as poncirin
  Average methane production: decreased
[2]; dose 1, 0.2 g/kg DM
  Methane production: 26.61
  Proportion of methane in the produced biogas: 13.92
[2]; dose 2, 0.5 g/kg DM
  Methane production: 27.47
  Proportion of methane in the produced biogas: 13.80
[3]; 0 h
  % Acetate, molar ratio: 62.51 mol/100 mol
  % Butyrate, molar ratio: 9.07 mol/100 mol
  % Propionate, molar ratio: 20.03 mol/100 mol
  A/P rate (acetate/propionate): 3.12
[3]; 0 h (initial constant value)
  VFA concentration: 13.78 mmol/L
[3]; 12 h
  % Acetate, molar ratio: 55.44 mol/100 mol
  % Butyrate, molar ratio: 9.61 mol/100 mol
  % Propionate, molar ratio: 29.52 mol/100 mol
  A/P rate (acetate/propionate): 1.88
  VFA concentration: 36.98 mmol/L
[3]; 72 h
  % Acetate, molar ratio: 55.36 mol/100 mol
  % Butyrate, molar ratio: 10.20 mol/100 mol
  % Propionate, molar ratio: 26.96 mol/100 mol
  A/P rate (acetate/propionate): 2.05
  VFA concentration: 51.87 mmol/L
[3]; average over incubation times
  % Acetate, molar ratio, average (μ): 57.77 mol/100 mol
  % Butyrate, molar ratio, average (μ): 9.63 ^a mol/100 mol
  % Propionate, molar ratio, average (M): 25.51 ^b mol/100 mol
  VFA concentration, average (μ): 34.21 mmol/L
[3]; average over incubation times, listed as poncirin
  % Propionate, molar ratio, average (M): improved
[4]; 0 h (initial constant value)
  N-NH3 concentration: 149.99 mg/L
[4]; 12 h
  N-NH3 concentration: 159.33 mg/L
[4]; average over incubation times
  N-NH3 concentration, average (M): 209.16 mg/L
[5]
  Lactate: 87.5 mg/L
Ruminal bacteria
  Bacteria DNA: 10.12 ^a μg/ml
Streptococcus bovis
  Relative Quantification 2^(ΔΔCt) S. bovis: 0.44
Selenomonas ruminantium
  Relative Quantification 2^(ΔΔCt) S. ruminantium: 0.68
Megasphaera elsdenii
  Relative Quantification 2^(ΔΔCt) M. elsdenii: 0.98 ^ab
[6]
  N-NH3 concentration: 318.15 mg/L
